Assay results from patent publication US20250295815A1, “PORPHYRIN-HYDROPORPHYRIN COMPOUNDS, COMPOSITIONS COMPRISING THE SAME AND METHODS OF USE THEREOF” (North Carolina State University, priority 2021, published 2025).

Tests used:
Type in all cases: physicochemical
[1] = Dyad photophysical properties in toluene, excited at 405 nm; design: ext coeff (abs max B) / brightness (abs max): unit not given here; conditions: for ext coeff (405 nm) / brightness (405 nm): at 405 nm; for ext coeff (405 nm) / FWHM / QY (x405) / abs max B / abs max Qx / abs max Qy / ext coeff (abs max B) / em max: room temperature; for ext coeff (405 nm): in M-1 cm-1 (unit assumed); for FWHM: emission peak; for FWHM / QY (x405) / em max: excited at 405 nm; for QY (x405): fluorescence quantum yield; for brightness (405 nm) / brightness (abs max): molar absorption coefficient x fluorescence quantum yield; for brightness (405 nm): in M⁻¹cm⁻¹; for brightness (abs max): at abs max
Procedure: (§1) The photophysical properties of samples were tested in toluene at room temperature and excited at 405 nm.

[2] = Brightness of hydroporphyrin monomers vs. porphyrin-hydroporphyrin dyads at 405 nm excitation; conditions: for fold change: brightness of dyad vs. corresponding hydroporphyrin monomer, 405 nm; for FWHM: emission peak narrowness; for QY (x405): fluorescence quantum yield in toluene at room temperature; for ext coeff (405 nm): molar absorption coefficient at 405 nm, in M-1 cm-1 (unit assumed); for brightness (405 nm): product of molar absorption coefficient at 405 nm and fluorescence quantum yield, in M⁻¹cm⁻¹; for brightness (405 nm) / abs max B / em max: toluene, room temperature
Procedure: Brightness was calculated using an excitation wavelength of 405 nm for a hydroporphyrin monomer having an emission wavelength of approximately 660, 680, 715, or 800 nm and for a fluorescent compound including a porphyrin and a hydroporphyrin structurally similar to the hydroporphyrin monomer. Brightness was calculated as the product of the molar absorption coefficient at 405 nm and the fluorescence quantum yield in toluene at room temperature. Table 3 provides the emission wavelength of the hydroporphyrin monomer and the corresponding dyad, the brightness of the hydroporphyrin monomer excited at 405 nm, the brightness of the dyad excited at 405 nm, and the fold change in brightness of the hydroporphyrin monomer compared to the brightness of the dyad.

[3] = Comparison porphyrin photophysical properties in toluene, excited at 405 nm; conditions: for ext coeff (405 nm) / brightness (405 nm): at 405 nm; for ext coeff (405 nm) / QY (x405) / abs max B / abs max Qx / em max / ext coeff (abs): room temperature; for ext coeff (405 nm) / ext coeff (abs): in M-1 cm-1 (unit assumed); for QY (x405): fluorescence quantum yield; for QY (x405) / em max: excited at 405 nm; for brightness (405 nm) / brightness (abs max): molar absorption coefficient x fluorescence quantum yield; for brightness (405 nm): in M⁻¹cm⁻¹; for brightness (abs max): at abs max
Procedure: as §1

| SMILES | ext coeff (405 nm) [1] | FWHM [1] | QY (x405) [1] | brightness (405 nm) [1] | brightness (abs max) [1] | abs max B [1] | abs max Qx [1] | abs max Qy [1] | ext coeff (abs max B) [1] | em max [1] | further results |
| --- | --- | --- | --- | --- | --- | --- | --- | --- | --- | --- | --- |
| COC(=O)c1ccc(C#Cc2cc3cc4nc(cc5[nH]c(cc6nc(c(OC)c2[nH]3)CC6(C)C)cc5C#Cc2ccc(-c3c5nc(cc6ccc(cc7nc(cc8ccc3[nH]8)C=C7)[nH]6)C=C5)cc2)CC4(C)C)cc1 [Dyad P1-BC1] | 276,800 | 21 nm | 0.23 | 64,405 | 64,405 | 405 nm | 529 nm | 760 nm | 276,800 | 765 nm |  |
| COC(=O)c1c(C#Cc2ccc(-c3c4nc(cc5ccc(cc6nc(cc7ccc3[nH]7)C=C6)[nH]5)C=C4)cc2)c2cc3nc(c(OC)c4[nH]c(cc5nc(cc1[nH]2)CC5(C)C)c(C#Cc1ccc(-c2c5nc(cc6ccc(cc7nc(cc8ccc2[nH]8)C=C7)[nH]6)C=C5)cc1)c4C(=O)OC)CC3(C)C [Dyad P1-BC2] | 325,400 | 31 nm | 0.19 | 60,845 | 60,845 | 405 nm | 499 nm | 795 nm | 325,400 | 804 nm | fold change [2]: 18.6; FWHM [2]: 31 nm; QY (x405) [2]: 0.19; ext coeff (405 nm) [2]: 325,400; brightness (405 nm) [2]: 60,845; abs max B [2]: 405 nm; em max [2]: 804 nm |
| COC(=O)c1ccc(-c2c3nc(cc4[nH]c(cc5nc(cc6[nH]c2cc6C#Cc2ccc(-c6c7nc(cc8ccc(cc9nc(cc%10ccc6[nH]%10)C=C9)[nH]8)C=C7)cc2)CC5(C)C)cc4C#Cc2ccc(-c4c5nc(cc6ccc(cc7nc(cc8ccc4[nH]8)C=C7)[nH]6)C=C5)cc2)C=C3)cc1 [Dyad P1-C6] | 238,800 | 17 nm | 0.34 | 80,567 | 81,579 | 406 nm | 499 nm | 680 nm | 241,800 | 682 nm | fold change [2]: 6.4; FWHM [2]: 17 nm; QY (x405) [2]: 0.34; ext coeff (405 nm) [2]: 238,800; brightness (405 nm) [2]: 80,567; abs max B [2]: 406 nm; em max [2]: 682 nm |
| CC1(C)OB(c2ccc(CNC(=O)c3ccc(C4=C5C=CC(=N5)C=c5ccc6[n]5[Zn][n]5c(ccc54)C=C4C=CC(=N4)C=6)cc3)cc2)OC1(C)C [Dyad P2] |  |  |  |  |  |  |  |  |  |  | ext coeff (405 nm) [3]: 209,100; QY (x405) [3]: 0.03; brightness (405 nm) [3]: 5,899; brightness (abs max) [3]: 6,466; abs max B [3]: 407 nm; abs max Qx [3]: 533 nm; em max [3]: 623 nm; ext coeff (abs) [3]: 229,200 |
| Cc1cc(C)c(-c2c3nc(cc4ccc([nH]4)c(-c4ccc(C(=O)NCc5ccc(B6OC(C)(C)C(C)(C)O6)cc5)cc4)c4nc(cc5ccc2[nH]5)C=C4)C=C3)c(C)c1 [Dyad P3] |  |  |  |  |  |  |  |  |  |  | ext coeff (405 nm) [3]: 234,100; QY (x405) [3]: 0.04; brightness (405 nm) [3]: 9,628; brightness (abs max) [3]: 12,560; abs max B [3]: 409 nm; abs max Qx [3]: 503 nm; em max [3]: 702 nm; ext coeff (abs) [3]: 305,400 |
| COC(=O)c1ccc(-c2c3nc(cc4ccc(cc5nc(cc6[nH]c2cc6C#Cc2ccc(CNC(=O)c6ccc(C7=C8C=CC(=N8)C=c8ccc9[n]8[Zn][n]8c(ccc87)C=C7C=CC(=N7)C=9)cc6)cc2)CC5(C)C)[nH]4)C=C3)cc1 [Dyad P4-C3] | 318,900 |  | 0.07 | 22,648 | 23,813 | 407 nm | 532 nm | 656 nm | 335,300 | 659 nm |  |

The next lines start with results.

| ext coeff (405 nm) [1] | FWHM [1] | QY (x405) [1] | brightness (405 nm) [1] | brightness (abs max) [1] | abs max B [1] | abs max Qx [1] | abs max Qy [1] | ext coeff (abs max B) [1] | em max [1] | SMILES | further results |
| --- | --- | --- | --- | --- | --- | --- | --- | --- | --- | --- | --- |
| 227,600 | 29 nm | 0.20 | 46,569 | 52,298 | 408 nm | 538 nm | 769 nm | 255,600 | 777 nm | COC(=O)c1ccc(-c2c(C(=O)OC)c3cc4nc(cc5[nH]c(c(OC)c6nc(cc2[nH]3)C(C)(C)C6)c(C(=O)OC)c5C#Cc2ccc(C3=C5C=CC(=N5)C=c5ccc6[n]5[Zn][n]5c(ccc53)C=C3C=CC(=N3)C=6)cc2)C(C)(C)C4)cc1 [Dyad P8-BC2] |  |
| 346,400 | 18 nm | 0.25 | 87,748 | 94,791 | 407 nm | 533 nm | 652 nm | 374,100 | 656 nm | COC(=O)c1ccc(-c2c3nc(cc4[nH]c(cc5nc(cc6[nH]c2cc6-c2ccc(CNC(=O)c6ccc(C7=C8C=CC(=N8)C=c8ccc9[n]8[Zn][n]8c(ccc87)C=C7C=CC(=N7)C=9)cc6)cc2)CC5(C)C)cc4-c2ccccc2)C=C3)cc1 [P2-C1, methyl ester] | fold change [2]: 2.5; FWHM [2]: 18 nm; QY (x405) [2]: 0.25; ext coeff (405 nm) [2]: 346,400; brightness (405 nm) [2]: 87,748; abs max B [2]: 407 nm; em max [2]: 656 nm |
| 227,900 | 15 nm | 0.21 | 47,083 | 60,532 | 410 nm | 505 nm | 659 nm | 293,000 | 660 nm | COC(=O)c1ccc(-c2c3nc(cc4ccc(cc5nc(cc6[nH]c2cc6C#Cc2ccc(-c6c7nc(cc8ccc([nH]8)c(-c8c(C)cc(C)cc8C)c8nc(cc9ccc6[nH]9)C=C8)C=C7)cc2)CC5(C)C)[nH]4)C=C3)cc1 [P7-C1; P6-C3] |  |
| 241,700 | 15 nm | 0.33 | 80,872 | 88,133 | 408 nm | 534 nm | 659 nm | 263,400 | 661 nm | COC(=O)c1ccc(-c2c3nc(cc4ccc(cc5nc(cc6[nH]c2cc6C#Cc2ccc(C6=C7C=CC(=N7)C=c7ccc8[n]7[Zn][n]7c(ccc76)C=C6C=CC(=N6)C=8)cc2)CC5(C)C)[nH]4)C=C3)cc1 [P8-C2, methyl ester] |  |
| 181,500 | 14 nm | 0.04 | 8,055 | 11,570 | 414 nm | 540 nm | 607 nm | 260,700 | 608 nm | COC(=O)c1ccc(C2=c3ccc4[n]3[Zn][n]3c(ccc3C(c3ccc(C#Cc5ccc(C6=c7ccc8[n]7[Zn][n]7c(ccc7C=C7N=C(C=8)CC7(C)C)C=C7C=CC6=N7)cc5)cc3)=C3C=CC(=N3)C=4)C=C3C=CC2=N3)cc1 [P9-C4, methyl ester] |  |
